Key:
[1] = test system: calvaria; test: Calvaria thickness measurement, gallocatechin and methyl vanillate treatment; assay type: cell-based; conditions: calvaria of 4-day-old postnatal mice under differentiation, one week (FIG. 7)
Method: While inducing the differentiation in the calvaria of 4-day-old postnatal mice supplied by Orient Bio. 2 nM of gallocatechin and 0.2 nM of methyl vanillate were treated for one week.

[2] = test system: ALP (alkaline phosphatase) in primary osteoblast (POB) cells; test: ALP staining in differentiated primary osteoblast cells; assay type: cell-based; conditions: 20 μM, differentiated and stained for 9 days (FIG. 8)
Method: In addition, in order to confirm the activity of ALP (alkaline phosphatase) showing the activation of bones, 20 μM of gallocatechin was treated with primary osteoblast (POB) cells, and allowed to differentiate and stain for 9 days.

[3] = test system: ALP (alkaline phosphatase); test: ALP activity analysis; assay type: cell-based; conditions: within the concentration gradient (FIG. 9 and FIG. 10)
[4] = test system: SD-based rat; conditions: single oral dose of 1 g/kg
Method: 6-week old specific pathogen-free (SPF) SD-based rat supplied from the DAEHAN Experiment Supply Center was used and the acute toxicity experiments were conducted as follows.
The animal mortality, clinical symptoms, and change in the body weight were observed and then hematologic testing and blood biochemical tests were conducted.

Structure (SMILES): Oc1cc(O)c2c(c1)O[C@H](c1cc(O)c(O)c(O)c1)[C@@H](O)C2 [gallocatechin]
- thickness of the calvaria ([1]; 2 nM gallocatechin): increased
- expression of ALP (staining) [2]: increased
- activity of ALP [3]: increased
- specific clinical symptoms and died animals [4]: not found
- toxic changes in body weight, blood tests, blood biochemical tests and autopsy findings [4]: not observed

Structure (SMILES): COC(=O)c1ccc(O)c(OC)c1 [methyl vanillate]
- thickness of the calvaria ([1]; 0.2 nM methyl vanillate): increased
- activity of ALP [3]: increased

Source: patent US11219656B2 (Industry-Academic Cooperation Foundation, Yonsei University, priority 2011, dated 2022)
